Source: article PMC6271219, “Antiprotozoal Activity of Achillea ptarmica (Asteraceae) and Its Main Alkamide Constituents” (Molecules, 2014)
Converted amounts (≈) assume the structure as drawn. Read-outs that look alike come from different tables or passages of the source.

Legend:
[1] = system: Trypanosoma brucei rhodesiense; test: In vitro antiprotozoal assay against T. brucei rhodesiense (Tbr); assay type: cell-based; conditions: for SI Tbr: ratio of cytotoxic (L6) over antiprotozoal IC50
Protocol: (§1) All fractions were analyzed by UHPLC/+ESI QTOF MSMS and representative samples chosen for re-evaluation of their antiprotozoal activity. At this stage, each of the chosen fractions was tested for percent growth inhibitory activity at two concentrations (see Table 2).
(§2) The assays and the IC50 determinations were performed essentially as described previously.

T. cruzi = test: In vitro antiprotozoal assay against T. cruzi (Tcr); assay type: cell-based; conditions: Trypanosoma cruzi
Protocol: as §1, §2

Leishmania donovani = test: In vitro antiprotozoal assay against Leishmania donovani (Ldo); assay type: cell-based
Protocol: as §1, §2

[2] = system: Plasmodium falciparum NF54 strain; test: In vitro antiplasmodial assay, P. falciparum NF54 strain; assay type: cell-based; conditions: for IC50: Plasmodium falciparum; for SI Pf: ratio of cytotoxic (L6) over antiprotozoal IC50, Pf NF54 strain
Protocol: as §1, §2

[3] = system: rat skeletal myoblasts (L6 cell line); test: Cytotoxicity against rat skeletal myoblasts (L6 cell line); assay type: cell-based
Protocol: as §2

[4] = system: Plasmodium falciparum K1 strain; test: In vitro antiplasmodial assay, P. falciparum K1 strain; assay type: cell-based; conditions: K1, read-out: IC50 Pf (value in brackets)
Protocol: Tests for antiprotozoal activities were carried out using established standard protocols at the Swiss Tropical and Public Health Institute (Swiss TPH, Basel, Switzerland). The assays and the IC50 determinations were performed essentially as described previously.

K1 strain of Pf [5] = system: K1 strain of Pf; set-up: method as in PMID 2236290; conditions: cited from earlier work
K1 strain of Pf [6] = system: K1 strain of Pf; set-up: method as in PMID 15234750; conditions: cited from earlier work
[7] = Trypanosoma brucei, RHODESIENSE, in vitro, means of two independent determinations ± deviation from mean, read-out: IC50 Tbr
[8] = Trypanosoma brucei, RHODESIENSE, in vitro, pure compounds, read-out: IC50 Tbr (value in brackets) (converted)
[9] = compared with A. ptarmica crude extract
[10] = in vitro, means of two independent determinations ± deviation from mean, read-out: IC50 Tcr
[11] = in vitro, pure compounds, read-out: IC50 Tcr (value in brackets) (converted)
[12] = in vitro, means of two independent determinations ± deviation from mean, read-out: IC50 Ldo
[13] = in vitro, pure compounds, read-out: IC50 Ldo (value in brackets) (converted)
[14] = NF54, NF54 strain, pure compounds, read-out: IC50 Pf (value in brackets) (converted)
[15] = cytotoxicity, L6 cell line, means of two independent determinations ± deviation from mean, read-out: IC50 Tox. L6
[16] = cytotoxicity, L6 cell line, pure compounds, read-out: IC50 Tox. L6 (value in brackets) (converted)
[17] = NF54, read-out: IC50 Pf (value in brackets)
[18] = L6, read-out: IC50 Tox. L6 (value in brackets)

SMILES: C/C=C\CC/C=C/C=C/C(=O)NCC(C)C [8,9-Z-Dehydropellitorine (2), (E,E,Z)-2,4,8-decatrienoic acid isobutylamide]
- IC50 [1, 7]: 2 ± 0.06 µg/mL
- IC50 [1, 8]: 9 µM
- Anti-Tbr activity, fold lower in comparison with the crude extract [1, 9]: 3 fold
- Selectivity index (Tbr), fold lower than that of the total extract ([1]; compared with A. ptarmica total extract): about 5 fold
- IC50 ([1]; in vitro, pure compounds, read-out: IC50 Tbr (value in brackets) (converted)): 9.1 µM
- SI Tbr [1]: 8.25
- IC50 (T. cruzi; [10]): 14.2 ± 2.5 µg/mL
- IC50 (T. cruzi; [11]): 64.3 µM
- IC50 (Leishmania donovani; [12]): 5.01 ± 0.12 µg/mL
- IC50 (Leishmania donovani; [13]): 22.7 µM
- IC50 [2, 14]: 29.3 µM
- SI Pf [2]: 2.55
- IC50 [3, 15]: 16.5 ± 0.2 µg/mL
- IC50 [3, 16]: 74.7 µM

SMILES: CCCC#CC#CCC/C=C/C=C/C(=O)NCC(C)C [Anacycline (6), (E,E)-2,4-tetradecadien-8,10-diynoic acid isobutylamide]
- IC50 [1, 7]: 5.12 ± 0.95 µg/mL
- IC50 [1, 8]: 18.9 µM
- SI Tbr [1]: 9.5
- IC50 (T. cruzi; read-out: IC50 Tcr): 42 ± 4.5 µg/mL
- IC50 (T. cruzi; read-out: IC50 Tcr (value in brackets)): 155 µM
- IC50 (Leishmania donovani; read-out: IC50 Ldo): > 100 µg/mL
- IC50 (Leishmania donovani; read-out: IC50 Ldo (value in brackets)): > 369 µM
- IC50 ([2]; NF54, read-out: IC50 Pf): 7.23 ± 0.4 µg/mL
- IC50 [2, 17]: 26.7 µM
- SI Pf [2]: 6.74
- IC50 ([3]; L6, read-out: IC50 Tox. L6): 48.7 ± 1.1 µg/mL
- IC50 [3, 18]: 18 µM

SMILES: O=C(Cn1ccnc1[N+](=O)[O-])NCc1ccccc1 [Benznidazole, reference compound]
- IC50 (T. cruzi; [10]): 0.439 ± 0.094 µg/mL
- IC50 (T. cruzi; [11]): 1.69 µM

SMILES: CCN(CC)CCCC(C)Nc1ccnc2cc(Cl)ccc12 (centres unmarked) [Chloroquine, reference compound]
- IC50 [4]: 0.25 µM
- IC50 [2, 17]: 0.009 µM

SMILES: Nc1nc(N)nc(Nc2ccc([As]3SCC(CO)S3)cc2)n1 (centres unmarked) [Melarsoprol, reference compound]
- IC50 ([1]; Trypanosoma brucei, RHODESIENSE, read-out: IC50 Tbr): 0.003 ± 0.001 µg/mL
- IC50 ([1]; Trypanosoma brucei, RHODESIENSE, read-out: IC50 Tbr (value in brackets)): 0.008 µM

SMILES: CCCCCC=CC=CC(=O)NCC(C)C [N-isobutyldeca-2,4-diene]
- IC50 against Pf (K1 strain of Pf [5]): 5.4 µg/mL (≈ 24.2 µM)

SMILES: CCCCC/C=C/C=C/C(=O)NCC(C)C [Pellitorine (1), (E,E)-2,4-decadienoic acid isobutylamide]
- IC50 [1, 7]: 5.35 ± 0.54 µg/mL
- IC50 [1, 8]: 24 µM
- SI Tbr [1]: 8.41
- IC50 (T. cruzi; [10]): 8.45 ± 1.08 µg/mL
- IC50 (T. cruzi; [11]): 37.9 µM
- IC50 (Leishmania donovani; [12]): 5.96 ± 0.16 µg/mL
- IC50 (Leishmania donovani; [13]): 26.7 µM
- IC50 Pf ([2]; NF54 strain, means of two independent determinations ± deviation from mean): 3.3 µg/mL (≈ 14.8 µM)
- IC50 ([2]; NF54, NF54 strain, means of two independent determinations ± deviation from mean, read-out: IC50 Pf): 3.26 µg/mL
- IC50 [2, 14]: 14.6 µM
- Antiplasmodial activity, fold higher than that of the crude extract [2, 9]: about 2 fold
- SI Pf [2]: 13.85
- IC50 [3, 15]: 45.5 ± 9.1 µg/mL
- IC50 [3, 16]: 202 µM
- Concentration up to which reported inactive against Pf (K1 strain of Pf [6]): > 20 µg/mL

SMILES: COc1cc([C@@H]2c3cc4c(cc3[C@H](O)[C@H]3COC(=O)[C@H]23)OCO4)cc(OC)c1OC [Podophyllotoxin, reference compound]
- IC50 ([3]; L6, read-out: IC50 Tox. L6): 0.008 ± 0.001 µg/mL
- IC50 [3, 18]: 0.019 µM
